Converted amounts (≈) assume the structure as drawn. “Also recorded” adds a separate entry of the source. Where a name gives a salt, the structure may show the parent alone. Read-outs that look alike come from different tables or passages of the source. Values belong to the molecule of their own block, whether it stands above or below them.
How the values were obtained:
[1] = conjugate acid of the second basic group; cited from earlier work
[2] = Biological activity (general statement); conditions: formed by hydrolysis of the carbomethoxy group of purpuromycin
[3] = Solubility and pH of solution; assay type: physicochemical
[4] = test system: Gardnerella vaginalis ATCC 14018 and other 11 clinical isolates; assay: Activity against Gardnerella vaginalis, standard two fold dilution methods; conditions: for Number of strains with MIC of 8 mcg/ml: MIC 8 mcg/ml
Procedure: The strains were grown on Casman medium (Difco) plus 5% (v/v) whole rabbit blood and 0.15 (v/v) lysed rabbit blood. Inoculum size: approximately 10^4 colony forming units per spot. Incubation in an anaerobic hood: 48 hours at 37° C.

Stability = assay type: physicochemical
Gardnerella vaginalis = assay: In vitro activity, M.I.C., agar dilution; assay type: cell-based; conditions: salts calculated as weight of purpuromycin; ATCC 14018 and 10 clinical isolates, all same M.I.C.; inoculum ca. 10^5 CFU, 48 h
Procedure: **The assay was carried out on strain ATCC 14018 and 10 clinical isolates
Incubation was for 48 h in an anaerobic hood (37° C.); inoculum ca. 10^5 CFU.

[5] = test system: Candida albicans ATCC 10231; assay: Activity against Candida strains, two-fold dilution method; assay type: cell-based; conditions: Candida albicans
Procedure: (§1) This set of experiments included also one strain each of two other Candida species, Candida tropicalis and Candida kruzei. The M.I.C. were determined by the two-fold dilution method in buffered (0.01 M phosphate buffer, pH 7.4) yeast nitrogen base medium (Difco) supplemented with 1.5 g/liter asparagine in microtiter trays. Inocula were approximately 10^4 colony forming units/ml. Incubation was for 20 h at 30° C. Purpuromycin was dissolved in DMSO and added to the cultures as above.

[6] = test system: Candida albicans SKF 2270; assay: as above; assay type: cell-based; conditions: Candida albicans
Procedure: as §1

[7] = test system: Haemophilus influenzae ATCC 19418; assay: In vitro activity, M.I.C., microbroth dilution; assay type: cell-based; conditions: salts calculated as weight of purpuromycin; 37° C., 48 h, 5% CO2
Procedure: (§2) MIC were determined by the microbroth dilution test. Bacteria were grown at 37° C., fungi at 30° C. Incubation was for 20 h, except for Propionibacterium acnes, Bacteroides fragilis, Neisseria gonorrhoeae, Haemophilus influenzae (48 h) and Trichophyton mentagrophytes (72h) Neisseria gonorrhoeae and Haemophilus influenzae were incubated in a CO2 -enriched (5%) atmosphere; Propionibacterium acnes and Bacteroides fragilis in an anaerobic hood. Media used were: Oxoid Iso-sensitest broth (Staphylococci, Enterococcus faecalis and Escherichia coli); Difco Todd-Hewitt broth (streptococci); Difco GC base broth with 1% BBL IsoVitaleX (Neisseria gonorrhoeae); Difco Brain-Heart Infusion broth with 1% Difco supplement C (Haemophilus influenzae); Difco Wilkins-Chalgren broth (Propionibacterium acnes and Bacteroides fragilis); Difco Yeast Nitrogen Base broth with 1.5 g/1 asparagine (Candida albicans); Difco Sabouraud-dextrose broth (Trichophyton mentagrophytes). Inocula were approximately 10^4 CFU/ml.

[8] = test system: Neisseria gonorrhoeae L 997; assay: In vitro activity, M.I.C., microbroth dilution; assay type: cell-based; conditions: salts calculated as weight of purpuromycin; 37° C., 48 h, 5% CO2
Procedure: as §2

Strep. pyogenes L49 = assay: In vitro activity, M.I.C., microbroth dilution; assay type: cell-based; conditions: salts calculated as weight of purpuromycin; 37° C., 20 h
Procedure: as §2

Staph. haemolyticus L602 = assay: In vitro activity, M.I.C., microbroth dilution; assay type: cell-based; conditions: salts calculated as weight of purpuromycin; 37° C., 20 h
Procedure: as §2

[9] = test system: Staph. epidermidis ATCC 12228; assay: In vitro activity, M.I.C., microbroth dilution; assay type: cell-based; conditions: salts calculated as weight of purpuromycin; 37° C., 20 h
Procedure: as §2

[10] = test system: Bacteroides fragilis ATCC 23745; assay: In vitro activity, M.I.C., microbroth dilution; assay type: cell-based; conditions: salts calculated as weight of purpuromycin; 37° C., 48 h, anaerobic hood
Procedure: as §2

[11] = test system: Enterococcus faecalis ATCC 7080; assay: In vitro activity, M.I.C., microbroth dilution; assay type: cell-based; conditions: salts calculated as weight of purpuromycin; 37° C., 20 h
Procedure: as §2

Strep. pneumoniae L44 = assay: In vitro activity, M.I.C., microbroth dilution; assay type: cell-based; conditions: salts calculated as weight of purpuromycin; 37° C., 20 h
Procedure: as §2

[12] = test system: Escherichia coli SKF 12140; assay: In vitro activity, M.I.C., microbroth dilution; assay type: cell-based; conditions: salts calculated as weight of purpuromycin; 37° C., 20 h
Procedure: as §2

[13] = test system: Propionibacterium acnes ATCC 6919; assay: In vitro activity, M.I.C., microbroth dilution; assay type: cell-based; conditions: salts calculated as weight of purpuromycin; 37° C., 48 h, anaerobic hood
Procedure: as §2

Staph. aureus Tour L 165 = assay: In vitro activity, M.I.C., microbroth dilution; assay type: cell-based; conditions: salts calculated as weight of purpuromycin; 37° C., 20 h
Procedure: as §2

[14] = test system: Trichophyton mentagrophytes SKF 17410; assay: In vitro activity, M.I.C., microbroth dilution; assay type: cell-based; conditions: salts calculated as weight of purpuromycin; 30° C., 72 h
Procedure: as §2

[15] = test system: Candida albicans SKF 2270; assay: In vitro activity, M.I.C., microbroth dilution; assay type: cell-based; conditions: salts calculated as weight of purpuromycin; 30° C., 20 h
Procedure: as §2

[16] = test system: Trichomonas vaginalis TVL; assay: In vitro activity, M.I.C., microtiter trays; assay type: cell-based; conditions: salts calculated as weight of purpuromycin; 48 h, anaerobic hood, 37° C.
Procedure: MIC were performed in flat-bottomed microtiter trays, with 0.2 ml per well. The medium was TYM modified basal medium (Merck) plus 10% horse serum (treated to inactivate complement). The inoculum was ca. 10^5 organisms/ml; incubation was for 48 h in an anaerobic hood (37° C.).The microtiter wells were read using an inverted light microscope. The MIC was taken as the lowest concentration at which no live (mobile) protozoa were seen.

Candida tropicalis L 243 = assay: Activity against Candida strains, two-fold dilution method; assay type: cell-based; conditions: L243, 20 h at 30° C., pH 7.4
Procedure: as §1, with “above. The following TABLE IV reports the MIC values for the whole set of strains.” for “above.”

[17] = test system: Candida albicans (19 clinical isolates); assay: as above; assay type: cell-based; conditions: 20 h at 30° C., pH 7.4
Procedure: as §1, with “above. The following TABLE IV reports the MIC values for the whole set of strains.” for “above.”

Candida kruzei L 244 = assay: as above; assay type: cell-based; conditions: L244, 20 h at 30° C., pH 7.4
Procedure: as §1, with “above. The following TABLE IV reports the MIC values for the whole set of strains.” for “above.”

[18] = test system: Trichomonas vaginalis strain TVL; assay: Activity against Trichomonas vaginalis, two-fold tube dilution method; assay type: cell-based; conditions: Trichomonas vaginalis, 48 hours at 37° C.
Procedure: Trichomonas vaginalis (applicant's internal code TVL) was grown on Trichomonas Culture Medium Base (Merck) plus 10% heat treated horse serum. Inoculum: approximately 10^5 organisms/ml. Incubation: 48 hours at 37° C.

[19] = test system: Gram-positive and Gram-negative bacteria and fungi; conditions: reported in UK Patent 1455128 and U.S. Pat. No. 3,914,257; cited from earlier work
yeasts = conditions: cited from earlier work

Compound: N=C(N)NCCC[C@H](N)C(=O)O [arginine]
pK3 value [1]: higher than 13

activity of degradation product [2]: almost inactive
Compound: COC1=CC(=O)c2c(O)c3c(c(O)c2C1=O)OC1(C3)CC(O)c2cc3cc(C(=O)O)oc(=O)c3c(O)c2O1 (stereo not drawn) [carboxylic acid derivative]

Compound: COC(=O)c1cc2cc3c(c(O)c2c(=O)o1)OC1(Cc2c(O)c4c(c(O)c2O1)C(=O)C(OC)=CC4=O)CC3O (stereo not drawn) [Purpuromycin]
solubility ([3]; buffer, pH 8.5, aqueous buffer, pH 8.5 buffer, read-out: solubility in water): 22 µg/mL (≈ 40.9 µM) | solubility (in words) ([3]; solvent): practically insoluble in water and in lower alkanols; also recorded: poorly soluble in most organic solvents | Number of strains with MIC of 8 mcg/ml ([4]; 12 strains tested): 12 strains | stability (in words) (Stability): hydrolysis of the carbomethoxy group; also recorded: undergoes a degradation process | M.I.C. (Gardnerella vaginalis): 16 mg/L | MIC ([5]; ATCC10231, 20 h at 30° C., pH 7.4, read-out: MIC): 0.5 µg/mL (≈ 0.929 µM) | MIC ([6]; SKF2270, 20 h at 30° C., pH 7.4, read-out: MIC): 1 µg/mL (≈ 1.86 µM) | M.I.C. [7]: 0.06 mg/L | M.I.C. [8]: 0.06 mg/L | M.I.C. (Strep. pyogenes L49): 0.06 mg/L | M.I.C. (Staph. haemolyticus L602): 0.06 mg/L | M.I.C. [9]: 0.06 mg/L | M.I.C. [10]: 0.13 mg/L | M.I.C. [11]: 0.06 mg/L | M.I.C. (Strep. pneumoniae L44): 0.06 mg/L | M.I.C. [12]: 8 mg/L | M.I.C. [13]: 0.06 mg/L | M.I.C. (Staph. aureus Tour L 165): 0.06 mg/L | M.I.C. [14]: 1 mg/L | M.I.C. [15]: 1 mg/L | M.I.C. [16]: 4 mg/L | MIC (Candida tropicalis L 243): 2 µg/mL (≈ 3.71 µM) | MIC [17]: 1 to 4 µg/mL (≈ 1.86 to 7.43 µM) | MIC (Candida kruzei L 244): 4 µg/mL (≈ 7.43 µM) | MIC ([18]; dissolved in DMSO, read-out: minimal inhibitory concentration (M.I.C.)): 4 µg/mL (≈ 7.43 µM) | MIC ([18]; read-out: MIC): 4 µg/mL (≈ 7.43 µM) | in vitro antimicrobial activity [19]: active in vitro against both Gram-positive and Gram-negative bacteria and fungi

MIC ([4]; Gardnerella vaginalis, read-out: MIC on resistant strains): > 32 µg/mL | Number of strains with MIC of 4 mcg/ml ([4]; MIC 4 mcg/ml, 12 strains tested): 1 strains | Number of strains with MIC of 8 mcg/ml ([4]; 12 strains tested): 3 strains | Number of strains with MIC of 16 mcg/ml ([4]; MIC 16 mcg/ml, 12 strains tested): 4 strains | Number of strains with MIC of 128 mcg/ml ([4]; MIC 128 mcg/ml, 12 strains tested): 3 strains | MIC ([5]; ATCC10231, 20 h, comparative tests, antibacterial agents, read-out: M.I.C.): > 128 µg/mL | MIC ([6]; SKF2270, 20 h, comparative tests, antibacterial agents, read-out: M.I.C.): > 128 µg/mL | MIC ([18]; read-out: MIC): 0.25 µg/mL (≈ 1.46 µM)
Compound: Cc1ncc([N+](=O)[O-])n1CCO [Metronidazole]
activity against yeasts (yeasts): not active against yeasts

Compound: COC(=O)c1cc2cc3c(c(O)c2c(=O)o1)OC1(Cc2c(O)c4c(c(O)c2O1)C(=O)C(OC)=CC4=O)CC3O (stereo not drawn) [arginine salt]
stability (in words) (Stability): not sufficiently stable
